Measured values reported in US20220304307A1, “SYNERGISTIC MIXTURES FOR ARTHROPOD TOXICITY AND REPELLENCY” (University of Florida Research Foundation, Incorporated, priority 2019, published 2022).

System: pyrethroid-resistant Puerto Rico (PR) strain of Ae. aegypti
Assay: Glass tube spatial repellency assay, resistant strain
Type: in vivo, Aedes aegypti
Parameters: 1 h EC50-PR (repellency): unit not given here
Settings: compound alone; 1 hr; PR strain
Protocol: (§1) The following assay was conducted according to the procedures of Jiang et al., 2019 (Jiang S., Yang L, and Bloomquist J (2019) High-throughput screening method for evaluating spatial repellency and vapor toxicity to mosquitoes. Med. Vet. Entomol.). For assessing behavioral repellency (FIG. 1), sixteen female Aedes aegypti mosquitoes were transferred to a glass tube (12.5 cm long, 2.5 cm outer diameter) with the ends covered with netting. Metofluthrin, bifenthrin, permethrin, pyrethrum, transfluthrin, deltamethrin, esfenvalerate, metofluthrin acid, bifenthrin acid, phenothrin acid, transchryanthemic acid, transfluthrin acid, deltamethrin acid, and fenvalerate acid were each dissolved in 1 mL of acetone and serial dilutions ranging from 30-0.01 μg/ml were made. Circular filter papers (5 cm^2) were saturated with 50 μL of each concentration and allowed 10 min for solvent evaporation. The filter papers were then placed in clear conical polypropylene caps and fixed to the end of the glass tubes. The netting prevented mosquito contact with the filter paper. Tubes were then aligned with a mark denoting the midline and the proportion of mosquitoes on the chemically treated side was scored at 15, 30, and 60 min. At the end of the test, the tube was placed in a cage and the ability of the mosquitoes to fly out of the tube was assessed for 30 min. […] This post-test evaluated whether any non-responding mosquitoes (not repelled) was due to intoxication or disorientation from the test chemical. For vapor toxicity, the assay was identical, except that mosquitoes were kept in the tube for 24 hr without the post-test at 1 hr, and the mortality was recorded at 24 hr.
EC50 values were calculated from non-linear regression to a four parameter logistic equation (Prism, GraphPad Software, San Diego, Calif.) of the curves shown in FIG. 4. RR=resistance ratio. NA=data not yet available.

Compound	1 h EC50-PR (repellency)
CC1(C)C(C=C(Cl)C(F)(F)F)C1C(=O)O (centres unmarked) [BFA, bifenthrin acid]	11
CC=CC1C(C(=O)O)C1(C)C (centres unmarked) [MFA, metofluthrin acid]	18

Same assay, conditions: repellency resistance ratio; compound alone

Compound	RR (PR EC50/OR EC50)
CC(C)=C[C@@H]1[C@@H](C(=O)O)C1(C)C (relative stereo) [TCA, 1-R-trans-chrysanthemic acid]	1.9
CC1(C)C(C=C(Cl)C(F)(F)F)C1C(=O)O (centres unmarked) [BFA, bifenthrin acid]	0.8
CC(C)[C@H](C(=O)O)c1ccc(Cl)cc1 [FVA, fenvalerate acid]	1.7
CC=CC1C(C(=O)O)C1(C)C (centres unmarked) [MFA, metofluthrin acid]	1.3
C/C=C/C1C(C(=O)OCc2c(F)c(F)c(COC)c(F)c2F)C1(C)C (centres unmarked) [Metofluthrin, reference compound]	60
CC(C)=CC1C(C(=O)O)C1(C)C (centres unmarked) [PhenA, phenothrin acid]	0.8

System: pyrethroid-resistant Puerto Rico strain of Ae. aegypti
Assay: Glass tube vapor toxicity assay, resistant strain
Type: in vivo, Aedes aegypti
Settings: LC50 metofluthrin+CO on Puerto Rico/LC50 metofluthrin on Orlando
Source text: The netting prevented mosquito contact with the filter paper.
The vapor toxicity of metofluthrin alone and in combination with citronella oil (CO) on susceptible Orlando and pyrethroid-resistant Puerto Rico strains of Ae. aegypti was investigated. The results are provided in Table 10 and in FIGS. 26 and 27. […] Synergism ratio (SR)=LC50 metofluthrin/LC50 metofluthrin+citronella. […] Resistance ratio (RR)=LC50 metofluthrin[…] on Puerto Rico/LC50 metofluthrin on Orlando.
Next, the vapor toxicity of empenthrin applied to two strains of Aedes aegypti, the pyrethroid-susceptible Orlando and pyrethroid-resistant Puerto Rico strain, was investigated. Empenthrin was applied alone and in combination with citronella oil (100 μg/cm^2, a nontoxic exposure). The RR for empenthrin alone was 5.7-fold.

Compound	resistance ratio RR, vapor toxicity, +citronella oil
C/C=C/C1C(C(=O)OCc2c(F)c(F)c(COC)c(F)c2F)C1(C)C (centres unmarked) [Metofluthrin, reference compound]	7.3

Same assay, conditions: citronella oil 100 μg/cm^2, Puerto Rico strain

Compound	effect of citronella oil on resistance to vapor toxicity
C#CC(OC(=O)C1C(C=C(C)C)C1(C)C)/C(C)=C/CC (centres unmarked) [empenthrin]	reversed resistance

Same assay, conditions: pyrethroid alone, Puerto Rico vs Orlando

Compound	resistance ratio RR, vapor toxicity
C/C=C/C1C(C(=O)OCc2c(F)c(F)c(COC)c(F)c2F)C1(C)C (centres unmarked) [Metofluthrin, reference compound]	50.7
C#CC(OC(=O)C1C(C=C(C)C)C1(C)C)/C(C)=C/CC (centres unmarked) [empenthrin]	5.7

System: female Ae. aegypti
Assay: Human arm bite protection assay
Type: in vivo, Aedes aegypti
Settings: as E30, volunteer one
Protocol: A human bite protection assay was performed according to see if the repellency observed in glass tubes extended to bite protection. The assay was run in accordance with that of Tsikolia et al. (Tsikolia M, Bernier UR, Coy M, Chalaire K, Becnel J, Agramonte N, Tabanca N, Wedge D, Clark G, Linthicum K, Swale D, and J. R. Bloomquist J (2013) Insecticidal and fungicidal properties of novel trifluoromethylphenyl amides. Pestic. Biochem. Physiol. 107, 138-147). Treated cloth patches were worn by human volunteers and the number of blood fed mosquitoes was determined after 1 min spent in a cage with 500 (±10%) female Ae. aegypti. Minimum Effective Dosage (MED in mg/cm^2) is the minimum amount required to prevent 99% of bites in three human volunteers (UF IRB #201602334). Synergist ratio (SR)=MED chemical alone/MED chemical+TFA (0.047 mg/cm^2) or TCA (0.094 mg/cm^2).

Compound	MED values Female 10
CC(C)=C[C@@H]1[C@@H](C(=O)O)C1(C)C (relative stereo) [TCA, 1-R-trans-chrysanthemic acid]	0.375 mg/cm^2

Same assay, conditions: as E30, volunteer two

Compound	MED values Female 9
CC(C)=C[C@@H]1[C@@H](C(=O)O)C1(C)C (relative stereo) [TCA, 1-R-trans-chrysanthemic acid]	0.187 mg/cm^2

Same assay, conditions: mean of three human volunteers

Compound	MED Mean
CC(C)=C[C@@H]1[C@@H](C(=O)O)C1(C)C (relative stereo) [TCA, 1-R-trans-chrysanthemic acid]	0.312 mg/cm^2

Same assay, conditions: minimum amount preventing 99% of bites; treated cloth patch, 1 min in cage; mixtures with TFA 0.047 or TCA 0.094 mg/cm^2

Compound	MED values Male 4
CC(C)=C[C@@H]1[C@@H](C(=O)O)C1(C)C (relative stereo) [TCA, 1-R-trans-chrysanthemic acid]	0.375 mg/cm^2

System: Orlando insecticide-susceptible strain of Ae. aegypti (female mosquitoes)
Assay: Glass tube spatial repellency assay
Type: in vivo, Aedes aegypti
Parameters: 1 h EC50-OR (repellency): unit not given here
Settings: 10 μg/cm^2; horizontal tube; 0.5=0% repellency, 0=100% repellency
Protocol: as §1

Compound	15 min repellency ratio	30 min repellency ratio	1 hr repellency ratio
O=Cc1cccc(Cl)c1 [3-chlorobenzaldehyde]	0.28	0.34	0.41
O=Cc1cccc(C(=O)O)c1 [3-formyl benzoic acid]	0.50	0.47	0.47
O=Cc1cccc(O)c1 [3-hydroxybenzaldehyde]	0.56	0.53	0.56
CC(C)(C)c1cccc(C=O)c1 [3-tert-butylbenzaldehyde]	0.31	0.25	0.31
C=Cc1cccc(C=O)c1 [3-vinylbenzaldehyde]	0.50	0.50	0.31
O=Cc1cccc(-c2ccccc2)c1 [biphenyl-3-carboxaldehyde]	0.44	0.38	0.38
O=Cc1cccc(C=O)c1 [isophthalaldehdye]	0.41	0.41	0.41
trifluoromethoxybenzaldehyde	0.38	0.38	0.44
α, α, α-trifluoromethyltolualdehyde	0.38	0.44	0.31

Same assay, conditions: 100 μg/cm^2, 1 hr exposure

Compound	mortality in repellency screening
C/C=C/C1C(C(=O)OCc2c(F)c(F)c(COC)c(F)c2F)C1(C)C (centres unmarked) [Metofluthrin, reference compound]	significant mortality

Same assay, conditions: 100 μg/cm^2; horizontal tube; 0.5=0% repellency, 0=100% repellency

Compound	15 min repellency ratio	30 min repellency ratio	1 hr repellency ratio
O=Cc1cccc(C(=O)O)c1 [3-formyl benzoic acid]	0.53	0.56	0.56
O=Cc1cccc(O)c1 [3-hydroxybenzaldehyde]	0.41	0.41	0.56
C=Cc1cccc(C=O)c1 [3-vinylbenzaldehyde]	0.19	0.25	0.19
O=Cc1cccc(-c2ccccc2)c1 [biphenyl-3-carboxaldehyde]	0.44	0.31	0.19
O=Cc1cccc(C=O)c1 [isophthalaldehdye]	0.03	0.09	0.06
trifluoromethoxybenzaldehyde	0.31	0.31	0.50
α, α, α-trifluoromethyltolualdehyde	0.38	0.50	0.63

Same assay, conditions: TCA alone at 10 μg/cm^2

Compound	repellency
CC(C)=C[C@@H]1[C@@H](C(=O)O)C1(C)C (relative stereo) [TCA, 1-R-trans-chrysanthemic acid]	25%

Same assay, conditions: applied as mixture with TFA (50 μg/cm^2); 1 hr

Compound	repellency EC50 (+TFA)
CC(C)=C[C@@H]1[C@@H](C(=O)O)C1(C)C (relative stereo) [TCA, 1-R-trans-chrysanthemic acid]	1.3 μg/cm^2

Same assay, conditions: compound alone; 1 hr

Compound	repellency EC50
CC(C)=C[C@@H]1[C@@H](C(=O)O)C1(C)C (relative stereo) [TCA, 1-R-trans-chrysanthemic acid]	20 μg/cm^2

Same assay, conditions: compound alone; 1 hr; OR strain

Compound	1 h EC50-OR (repellency)
CC1(C)C(C=C(Cl)C(F)(F)F)C1C(=O)O (centres unmarked) [BFA, bifenthrin acid]	14
CC=CC1C(C(=O)O)C1(C)C (centres unmarked) [MFA, metofluthrin acid]	14

Same assay, conditions: repellency; TFA 50 μg/cm^2 as mixture

Compound	synergist ratio SR (EC50 compound alone/EC50 compound+TFA)
CC(C)=C[C@@H]1[C@@H](C(=O)O)C1(C)C (relative stereo) [TCA, 1-R-trans-chrysanthemic acid]	15

System: insecticide-susceptible Aedes aegypti (Orlando strain) females
Assay: Glass tube vapor toxicity assay (24 hr mortality)
Settings: 10 μg/cm^2; horizontal tube
Protocol: as §1
Synergism ratio (SR)=LC50 pyrethroid/LC50 pyrethroid+EO.

Compound	24 hr mort (%)
O=Cc1cccc(Cl)c1 [3-chlorobenzaldehyde]	31.3%
O=Cc1cccc(C(=O)O)c1 [3-formyl benzoic acid]	6.3%
O=Cc1cccc(O)c1 [3-hydroxybenzaldehyde]	21.9%
CC(C)(C)c1cccc(C=O)c1 [3-tert-butylbenzaldehyde]	6.3%
C=Cc1cccc(C=O)c1 [3-vinylbenzaldehyde]	100.0%
O=Cc1cccc(-c2ccccc2)c1 [biphenyl-3-carboxaldehyde]	50.0%
O=Cc1cccc(C=O)c1 [isophthalaldehdye]	40.6%
trifluoromethoxybenzaldehyde	6.3%
α, α, α-trifluoromethyltolualdehyde	0.0%

Same assay, conditions: 100 μg/cm^2; horizontal tube

Compound	24 hr mort (%)
O=Cc1cccc(Cl)c1 [3-chlorobenzaldehyde]	100.0%
O=Cc1cccc(C(=O)O)c1 [3-formyl benzoic acid]	9.4%
O=Cc1cccc(O)c1 [3-hydroxybenzaldehyde]	15.6%
CC(C)(C)c1cccc(C=O)c1 [3-tert-butylbenzaldehyde]	81.3%
C=Cc1cccc(C=O)c1 [3-vinylbenzaldehyde]	6.3%
O=Cc1cccc(-c2ccccc2)c1 [biphenyl-3-carboxaldehyde]	6.3%
O=Cc1cccc(C=O)c1 [isophthalaldehdye]	87.5%
trifluoromethoxybenzaldehyde	0.0%
α, α, α-trifluoromethyltolualdehyde	0.0%

Same assay, conditions: Aedes aegypti, 0.25 h, read-out: 15 min % mortality

Compound	mortality at 100 µg/cm2
O=Cc1cccc(Cl)c1 [3-chlorobenzaldehyde]	50%
CC(C)(C)c1cccc(C=O)c1 [3-tert-butylbenzaldehyde]	96.9%

Same assay, conditions: Aedes aegypti, 0.5 h, read-out: 30 min % mortality

Compound	mortality at 100 µg/cm2
O=Cc1cccc(Cl)c1 [3-chlorobenzaldehyde]	75%
CC(C)(C)c1cccc(C=O)c1 [3-tert-butylbenzaldehyde]	100%

Same assay, conditions: Aedes aegypti, 1 h, read-out: 1 hr % mortality

Compound	mortality at 100 µg/cm2
O=Cc1cccc(Cl)c1 [3-chlorobenzaldehyde]	100%
CC(C)(C)c1cccc(C=O)c1 [3-tert-butylbenzaldehyde]	100%

Same assay, conditions: in vivo

Compound	synergism ratio of vapor toxicity, +citronella
C/C=C/C1C(C(=O)OCc2c(F)c(F)c(COC)c(F)c2F)C1(C)C (centres unmarked) [Metofluthrin, reference compound]	7.6

Same assay, conditions: pyrethroid alone

Compound	LC50 (24 h vapor toxicity)
C/C=C/C1C(C(=O)OCc2c(F)c(F)c(COC)c(F)c2F)C1(C)C (centres unmarked) [Metofluthrin, reference compound]	0.84 μg/cm^2

Same assay, conditions: with citronella; 24 h

Compound	LC50 +citronella
C/C=C/C1C(C(=O)OCc2c(F)c(F)c(COC)c(F)c2F)C1(C)C (centres unmarked) [Metofluthrin, reference compound]	0.11 μg/cm^2
